± gives the expanded uncertainty stated by the source.
Assay: xn = mol fraction of the nth substance listed
Conditions: 101 kPa, Liquid; for viscosity: Capillary tube (Ostwald / Ubbelohde) method; for mass density: Vibrating tube method

CCN(CC)CCO [(diethylamino)ethanol] + NCCO
Conditions	mass density, 293.15 K [kg/m3]	mass density, 303.15 K [kg/m3]	mass density, 313.15 K [kg/m3]	mass density, 323.15 K [kg/m3]	mass density, 333.15 K [kg/m3]	viscosity, 293.15 K [mPa·s]	viscosity, 303.15 K [mPa·s]	viscosity, 313.15 K [mPa·s]	viscosity, 323.15 K [mPa·s]	viscosity, 333.15 K [mPa·s]
x2 = 0	891.2 ± 10	874.4 ± 10	865.4 ± 10	856.4 ± 10	845.6 ± 10	4.848 ± 0.97	3.41 ± 0.68	2.466 ± 0.49	1.855 ± 0.37	1.431 ± 0.29
x2 = 0.1003	897.2 ± 10	881.4 ± 10	869.8 ± 10	859.4 ± 10	849.2 ± 10	6.52 ± 1.3	3.543 ± 0.71	2.619 ± 0.52	1.952 ± 0.39	1.568 ± 0.31
x2 = 0.2004	906.9 ± 10	892.2 ± 10	881.6 ± 10	871.1 ± 10	861 ± 10	8.275 ± 1.7	3.892 ± 0.78	2.982 ± 0.6	2.149 ± 0.43	1.746 ± 0.35
x2 = 0.2993	920.7 ± 10	906.2 ± 10	897.8 ± 10	887.6 ± 10	879.7 ± 10	10.42 ± 2.1	4.495 ± 0.9	3.501 ± 0.7	2.658 ± 0.53	2.107 ± 0.42
x2 = 0.4003	931.6 ± 10	918 ± 10	910.5 ± 10	901.2 ± 10	891.8 ± 10	12.32 ± 2.5	5.526 ± 1.1	4.04 ± 0.81	2.925 ± 0.59	2.426 ± 0.49
x2 = 0.5001	941 ± 10	929.9 ± 10	920.1 ± 10	910.2 ± 10	902.3 ± 10	13.76 ± 2.8	6.483 ± 1.3	4.629 ± 0.93	3.314 ± 0.66	2.767 ± 0.55
x2 = 0.6001	952.2 ± 10	942.1 ± 10	935 ± 10	926.9 ± 10	915.8 ± 10	15.98 ± 3.2	7.382 ± 1.5	5.072 ± 1	3.651 ± 0.73	3.007 ± 0.6
x2 = 0.7007	965.8 ± 10	954.2 ± 10	944.6 ± 10	935.9 ± 10	927.9 ± 10	17.27 ± 3.5	8.567 ± 1.7	5.754 ± 1.2	4.046 ± 0.81	3.273 ± 0.66
x2 = 0.8001	981.8 ± 10	971.6 ± 10	963 ± 10	954.3 ± 10	946.2 ± 10	19.77 ± 4	10.57 ± 2.1	7.21 ± 1.4	4.954 ± 0.99	3.651 ± 0.73
x2 = 0.9	999.8 ± 10	991.5 ± 10	982.7 ± 10	974.3 ± 10	965.5 ± 10	22.75 ± 4.6	13.44 ± 2.7	8.826 ± 1.8	6.018 ± 1.2	4.413 ± 0.88

From the NIST ThermoML archive (doi:10.1016/j.jct.2019.06.032)
